Data as given in patent US6737383B1, “Herbicidal oxadiazolidines” (priority 1999, dated 2004).

Tests used:
bedstraw = assay: Test B pre/postemergence bedstraw; assay type: in vivo, Galium aparine
Procedure, shortened: (§1)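 Test chemicals in a non-phytotoxic solvent mixture with surfactant were sprayed preemergence onto planted seeds and postemergence onto plants 2 to 18 cm tall (1- to 4-leaf stage). After twelve to sixteen days in a greenhouse, injury was visually rated against untreated controls from 0 (no effect) to 10 (complete control).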

blackgrass = assay: Test B pre/postemergence blackgrass; assay type: in vivo, Alopecurus myosuroides
Procedure, shortened: as §1

surinam grass = assay: Test B pre/postemergence surinam grass; assay type: in vivo, Brachiaria decumbens
Procedure, shortened: as §1

cocklebur = assay: Test B pre/postemergence cocklebur; assay type: in vivo, Xanthium strumarium
Procedure, shortened: as §1

corn = assay: Test B pre/postemergence corn; assay type: in vivo, Zea mays
Procedure, shortened: as §1

giant foxtail = assay: Test B pre/postemergence giant foxtail; assay type: in vivo, Setaria faberii
Procedure, shortened: as §1

morningglory = assay: Test B pre/postemergence morningglory; assay type: in vivo, Ipomoea hederacea
Procedure, shortened: as §1

pigweed = assay: Test B pre/postemergence pigweed; assay type: in vivo, Amaranthus retroflexus
Procedure, shortened: as §1

rape = assay: Test B pre/postemergence rape; assay type: in vivo, Brassica napus
Procedure, shortened: as §1

soybean = assay: Test B pre/postemergence soybean; assay type: in vivo, Glycine max
Procedure, shortened: as §1

sugar beet = assay: Test B pre/postemergence sugar beet; assay type: in vivo, Beta vulgaris
Procedure, shortened: as §1

velvetleaf = assay: Test B pre/postemergence velvetleaf; assay type: in vivo, Abutilon theophrasti
Procedure, shortened: as §1

wheat = assay: Test B pre/postemergence wheat; assay type: in vivo, Triticum aestivum
Procedure, shortened: as §1

wild oat = assay: Test B pre/postemergence wild oat; assay type: in vivo, Avena fatua
Procedure, shortened: as §1

rice = assay: Test B flood test rice; assay type: in vivo, Oryza sativa
Procedure, shortened: (§2)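 Read-out is a visual response score from 0 (no effect) to 10 (complete control), assigned by comparison with untreated controls. Treatment was applied at the 2-leaf stage, and plants stayed in the greenhouse for twelve to sixteen days before scoring.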

smallflower flatsedge = assay: Test B flood test smallflower flatsedge; assay type: in vivo, Cyperus difformis
Procedure, shortened: as §2

[1] = Preemergence, Rate 62 g/ha, scale of 0 to 10 where 0 is no effect and 10 is complete control
[2] = Preemergence, Rate 125 g/ha, 0 is no effect, 10 is complete control
[3] = Preemergence, Rate 250 g/ha, scale 0 to 10, 0 is no effect, 10 is complete control
[4] = Preemergence, Rate 500 g/ha, scale 0 to 10 (0 no effect, 10 complete control)
[5] = Rate 62 g/ha, Postemergence, scale of 0 to 10 where 0 is no effect and 10 is complete control
[6] = Rate 125 g/ha, Postemergence, scale 0 to 10
[7] = Rate 500 g/ha, Postemergence, scale 0 to 10
[8] = Rate 62 g/ha, headed Pre-emergence (flood test species), scale 0 to 10 (0 no effect, 10 complete control)
[9] = Rate 125 g/ha, Pre-emergence, flood test species, scale 0 to 10 where 0 is no effect and 10 is complete control
[10] = Rate 250 g/ha, Pre-emergence, flood-test species, scale 0 to 10, 0 is no effect, 10 is complete control

Cc1ccccc1-n1c(=O)on(C(=O)N(c2ccc(-c3ccccc3)cc2)C(C)C)c1=O [Compound 187]
0: Bedstraw plant response rating (bedstraw; [1]) | Bedstraw plant response rating (0 to 10 scale) (bedstraw; [2]) | Bedstraw plant response rating (bedstraw; [3]) | Bedstraw plant response rating (bedstraw; [4]) | Bedstraw plant response rating (bedstraw; [5]) | Bedstraw plant response rating (bedstraw; [6]) | Plant response rating (0 to 10; 0 is no effect, 10 is complete control), Bedstraw (bedstraw; Rate 250 g/ha, Postemergence) | Bedstraw plant response rating (bedstraw; [7]) | Blackgrass plant response rating (blackgrass; [1]) | Blackgrass plant response rating (0 to 10 scale) (blackgrass; [2]) | Blackgrass plant response rating (blackgrass; [3]) | Blackgrass plant response rating (blackgrass; [4]) | Blackgrass plant response rating (blackgrass; [5]) | Blackgrass plant response rating (blackgrass; [6]) | Plant response rating (0 to 10; 0 is no effect, 10 is complete control), Blackgrass (blackgrass; Rate 250 g/ha, Postemergence) | Blackgrass plant response rating (blackgrass; [7]) | B. signalgrass plant response rating (surinam grass; [1]) | B. signalgrass plant response rating (0 to 10 scale) (surinam grass; [2]) | B. signalgrass plant response rating (surinam grass; [3]) | B. signalgrass plant response rating (surinam grass; [4]) | B. signalgrass plant response rating (surinam grass; [5]) | B. signalgrass plant response rating (surinam grass; Rate 125 g/ha, Postemergence, scale 0 (no effect) to 10 (complete control)) | Plant response rating, B. signalgrass (surinam grass; Rate 250 g/ha, Postemergence, scale 0 to 10, 0 is no effect, 10 is complete control) | B. signalgrass plant response rating (surinam grass; Rate 500 g/ha, Postemergence, scale 0 to 10, 0 no effect, 10 complete control) | Cocklebur plant response rating (cocklebur; [1]) | Cocklebur plant response rating (0 to 10 scale) (cocklebur; [2]) | Cocklebur plant response rating (cocklebur; [3]) | Cocklebur plant response rating (cocklebur; [4]) | Cocklebur plant response rating (cocklebur; [5]) | Cocklebur plant response rating (cocklebur; [6]) | Plant response rating (0 to 10; 0 is no effect, 10 is complete control), Cocklebur (cocklebur; Rate 250 g/ha, Postemergence) | Cocklebur plant response rating (cocklebur; [7]) | Corn plant response rating (corn; [1]) | Corn plant response rating (0 to 10 scale) (corn; [2]) | Corn plant response rating (corn; [3]) | Corn plant response rating (corn; [4]) | Corn plant response rating (corn; [5]) | Corn plant response rating (corn; [6]) | Plant response rating (0 to 10; 0 is no effect, 10 is complete control), Corn (corn; Rate 250 g/ha, Postemergence) | Corn plant response rating (corn; [7]) | Giant foxtail plant response rating (giant foxtail; [1]) | Giant foxtail plant response rating (0 to 10 scale) (giant foxtail; [2]) | Giant foxtail plant response rating (giant foxtail; [3]) | Giant foxtail plant response rating (giant foxtail; [4]) | Giant foxtail plant response rating (giant foxtail; [5]) | Giant foxtail plant response rating (giant foxtail; [6]) | Plant response rating (0 to 10; 0 is no effect, 10 is complete control), Giant foxtail (giant foxtail; Rate 250 g/ha, Postemergence) | Giant foxtail plant response rating (giant foxtail; [7]) | Morningglory plant response rating (morningglory; [1]) | Morningglory plant response rating (0 to 10 scale) (morningglory; [2]) | Morningglory plant response rating (morningglory; [3]) | Morningglory plant response rating (morningglory; [4]) | Morningglory plant response rating (morningglory; [5]) | Morningglory plant response rating (morningglory; [6]) | Plant response rating (0 to 10; 0 is no effect, 10 is complete control), Morningglory (morningglory; Rate 250 g/ha, Postemergence) | Morningglory plant response rating (morningglory; [7]) | Redroot pigweed plant response rating (pigweed; [1]) | Redroot pigweed plant response rating (0 to 10 scale) (pigweed; [2]) | Redroot pigweed plant response rating (pigweed; [3]) | Redroot pigweed plant response rating (pigweed; [4]) | Redroot pigweed plant response rating (pigweed; [5]) | Redroot pigweed plant response rating (pigweed; [6]) | Plant response rating (0 to 10; 0 is no effect, 10 is complete control), Redroot pigweed (pigweed; Rate 250 g/ha, Postemergence) | Redroot pigweed plant response rating (pigweed; [7]) | Rape plant response rating (rape; [1]) | Rape plant response rating (0 to 10 scale) (rape; [2]) | Rape plant response rating (rape; [3]) | Rape plant response rating (rape; [4]) | Rape plant response rating (rape; [5]) | Rape plant response rating (rape; [6]) | Plant response rating (0 to 10; 0 is no effect, 10 is complete control), Rape (rape; Rate 250 g/ha, Postemergence) | Rape plant response rating (rape; [7]) | Soybean plant response rating (soybean; [1]) | Soybean plant response rating (0 to 10 scale) (soybean; [2]) | Soybean plant response rating (soybean; [3]) | Soybean plant response rating (soybean; [4]) | Soybean plant response rating (soybean; [5]) | Soybean plant response rating (soybean; [6]) | Plant response rating (0 to 10; 0 is no effect, 10 is complete control), Soybean (soybean; Rate 250 g/ha, Postemergence) | Soybean plant response rating (soybean; [7]) | Sugarbeets plant response rating (sugar beet; [1]) | Sugarbeets plant response rating (0 to 10 scale) (sugar beet; [2]) | Sugarbeets plant response rating (sugar beet; [3]) | Sugarbeets plant response rating (sugar beet; [4]) | Sugarbeets plant response rating (sugar beet; [5]) | Sugarbeets plant response rating (sugar beet; [6]) | Plant response rating (0 to 10; 0 is no effect, 10 is complete control), Sugarbeets (sugar beet; Rate 250 g/ha, Postemergence) | Sugarbeets plant response rating (sugar beet; [7]) | Velvetleaf plant response rating (velvetleaf; [1]) | Velvetleaf plant response rating (velvetleaf; [3]) | Velvetleaf plant response rating (velvetleaf; [4]) | Velvetleaf plant response rating (velvetleaf; [5]) | Velvetleaf plant response rating (velvetleaf; [6]) | Plant response rating (0 to 10; 0 is no effect, 10 is complete control), Velvetleaf (velvetleaf; Rate 250 g/ha, Postemergence) | Wheat plant response rating (wheat; [1]) | Wheat plant response rating (wheat; [3]) | Wheat plant response rating (wheat; [4]) | Wheat plant response rating (wheat; [5]) | Wheat plant response rating (wheat; [6]) | Plant response rating (0 to 10; 0 is no effect, 10 is complete control), Wheat (wheat; Rate 250 g/ha, Postemergence) | Wild oats plant response rating (wild oat; [1]) | Wild oats plant response rating (wild oat; [3]) | Wild oats plant response rating (wild oat; [4]) | Wild oats plant response rating (wild oat; [5]) | Wild oats plant response rating (wild oat; [6]) | Plant response rating (0 to 10; 0 is no effect, 10 is complete control), Wild oats (wild oat; Rate 250 g/ha, Postemergence) | Rice plant response rating (rice; [8]) | Rice plant response rating (rice; [9]) | Rice plant response rating (rice; [10]) | Plant response rating, Rice (rice; Rate 500 g/ha, headed Pre-emergence (flood test species), scale 0 to 10 (0 no effect, 10 complete control)) | S. Flatsedge plant response rating (smallflower flatsedge; [8]) | S. Flatsedge plant response rating (smallflower flatsedge; [9]) | S. Flatsedge plant response rating (smallflower flatsedge; [10]) | S. Flatsedge plant response rating (smallflower flatsedge; Rate 500 g/ha, Pre-emergence, flood test species, scale 0 to 10 (0 no effect, 10 complete control))
